In PMC9069370, “Integrated Design of a Membrane‐Lytic Peptide‐Based Intravenous Nanotherapeutic Suppresses Triple‐Negative Breast Cancer” (Advanced Science, 2022):
Peptide text beside a SMILES is read from it.

Assays:
[1] = ANTS/DPX liposome leakage assay; conditions: 0.5 mM vesicles, peptide 0-20 µM, 3 h incubation, lipid per peptide; for Peptide Concentration-induced 50 % ANTS/DPX leakage at pH 4.8 (L/P), 3POPC/1POPG Vesicle / Peptide Concentration-induced 50 % ANTS/DPX leakage at pH 4.8 (L/P), POPC Vesicle: HCl-adjusted PBS 1X pH 4.8; for Peptide Concentration-induced 50 % ANTS/DPX leakage at pH 7.4 (L/P), 3POPC/1POPG Vesicle / Peptide Concentration-induced 50 % ANTS/DPX leakage at pH 7.4 (L/P), POPC Vesicle: PBS 1X pH 7.4, high ratio = more potent
Protocol: Vesicle preparation: 5 mM ANTS and 12.5 mM DPX were entrapped in 0.1 µm diameter extruded vesicles (either POPC or POPC/POPG at a ratio of 3:1) with lipids. Gel filtration chromatography of Sephadex G‐100 was used to remove external free ANTS/DPX from LUVs with entrapped contents. LUVs were diluted to 0.5 mM and used to measure the leakage activity by the addition of aliquots of ACPs. Leakage was measured after 3 h incubation. 10% Triton was used as the positive control to measure the maximum leakage of the vesicle. Fluorescence emission spectra were recorded using excitation and emission wavelength of 350 and 510 nm for ANTS/DPX using a BioTek Synergy H1 Hybrid Multi‐Mode Reader.
Peptide Concentration-induced Peptide Concentration-induced
Name Sequence† 50 % ANTS/DPX leakage 50 % ANTS/DPX leakage at pH 7.4 (L/P) at pH 4.8 (L/P)
POPC Vesicle 3POPC/1POPG Vesicle POPC Vesicle 3POPC/1POPG Vesicle […]
Extended Data Table 4 | Peptide concentration-induced 50 % ANTS/DPX liposome leakage. 0.5 mM POPC and 3POPC/1POPG vesicles were fixed and incubated with titrated peptide concentration (0, 0.02, […]
hydrochloric acid-adjusted phoshate buffered saline (1X, pH 4.8). The values are shown as lipid per

[2] = Tryptophan fluorescent binding assay; conditions: tryptophan fluorescence; 50 µM peptide, lipid titrated 0-5000 µM; phosphate buffered saline 1X, pH 7.4; values as lipid per peptide
Protocol: 50 µM ACP peptides and varied concentrations (concentrations: 0, 25, 50, 100, 150, 200, 250, 500, 1250, and 2500 µM) of POPC or POPC:POPG (3:1 ratio) large unilamellar vesicles were prepared in 10 mM phosphate buffer (pH 7.0). The solutions were measured after 1 h of incubation. Excitation was fixed at 280 nm (slit 9 nm) and emission was collected from 300 to 450 nm (slit 9 nm). The spectra were recorded using Cytation 5 Cell Imaging Multi‐Mode Reader from BioTek and were averaged by three scans.
Lipid Concentration-induced
Name Sequence† 50% Peptide Binding (L/P)
Extended Data Table 3 | Tryptophan binding assay. […]
peptide binding onto liposome. 50 µM peptides were fixed and incubated with titrated lipid (POPC vesicle […]
phosphate buffered saline (1X, pH 7.4). The lipid concentration that causes 50 % peptide binding was determined using tryptophan fluorescent binding assay and the values are shown as lipid per peptide.

[3] = test system: MCF‐10A; test: cells; assay type: cell-based, human; conditions: 72 h
From the text: (§1) […], and MCF-10A cells were maintained in MEGM with supplements and growth factors bovine pituitary extract, hydrocortisone, human epidermal growth factor, insulin, and gentamicin/amphotericin-B.

[4] = test system: HMLER‐shEcad; test: cells; assay type: cell-based, human; conditions: 72 h
From the text: as §1

[5] = test system: HMLER; test: cells; assay type: cell-based, human; conditions: 72 h
From the text: as §1

[6] = test system: U2OS; assay type: cell-based, human; conditions: 72 h
[7] = test system: HEK293T; test: cells; assay type: cell-based, human; conditions: 72 h

SMILES | Peptide Concentration-induced 50 % ANTS/DPX leakage at pH 4.8 (L/P), 3POPC/1POPG Vesicle [1] | Peptide Concentration-induced 50 % ANTS/DPX leakage at pH 4.8 (L/P), POPC Vesicle [1] | Peptide Concentration-induced 50 % ANTS/DPX leakage at pH 7.4 (L/P), 3POPC/1POPG Vesicle [1] | Peptide Concentration-induced 50 % ANTS/DPX leakage at pH 7.4 (L/P), POPC Vesicle [1] | Lipid Concentration-induced 50% Peptide Binding (L/P), 3POPC/1POPG Vesicle [2] | Lipid Concentration-induced 50% Peptide Binding (L/P), POPC Vesicle [2] | IC50 [3] | IC50 [4] | IC50 [5] | IC50 [6] | IC50 [7]
CC(C)C[C@H](NC(=O)CN)C(=O)N[C@@H](CC(C)C)C(=O)N[C@@H](Cc1c[nH]cn1)C(=O)N[C@@H](CC(C)C)C(=O)N[C@@H](CC(C)C)C(=O)N[C@@H](CCC(=O)O)C(=O)N[C@@H](CC(C)C)C(=O)N[C@@H](CC(C)C)C(=O)N[C@@H](CC(C)C)C(=O)N[C@@H](CCCCN)C(=O)N[C@@H](C)C(=O)N[C@@H](C)C(=O)NCC(=O)N[C@@H](Cc1c[nH]c2ccccc12)C(N)=O [HEK] (H-GLLHLLELLLKAAGW-NH2) | 411 L/P | 97 L/P | 386 L/P | 755 L/P | 0.46 L/P | 0.44 L/P | 29.8 ± 7.35 µM | 3.45 ± 2.19 µM | 2.35 ± 1.06 µM | 143 ± 80.3 µM | 6.95 ± 1.63 µM
CC(C)C[C@H](NC(=O)CN)C(=O)N[C@@H](CC(C)C)C(=O)N[C@@H](Cc1c[nH]cn1)C(=O)N[C@@H](CC(C)C)C(=O)N[C@@H](CC(C)C)C(=O)N[C@@H](CCCCN)C(=O)N[C@@H](CC(C)C)C(=O)N[C@@H](CC(C)C)C(=O)N[C@@H](CC(C)C)C(=O)N[C@@H](Cc1c[nH]cn1)C(=O)N[C@@H](C)C(=O)N[C@@H](C)C(=O)NCC(=O)N[C@@H](Cc1c[nH]c2ccccc12)C(N)=O [HKH] (H-GLLHLLKLLLHAAGW-NH2) | 47 L/P | 193 L/P | 274 L/P | 1077 L/P | 0.38 L/P | 0.18 L/P | 6.1 µM | 3.1 ± 0.57 µM | 3.45 ± 0.21 µM | 18.9 ± 1.24 µM | 5.7 ± 0.99 µM
CC(C)C[C@H](NC(=O)CN)C(=O)N[C@@H](CC(C)C)C(=O)N[C@@H](Cc1c[nH]cn1)C(=O)N[C@@H](CC(C)C)C(=O)N[C@@H](CC(C)C)C(=O)N[C@@H](Cc1c[nH]cn1)C(=O)N[C@@H](CC(C)C)C(=O)N[C@@H](CC(C)C)C(=O)N[C@@H](CC(C)C)C(=O)N[C@@H](CCC(=O)O)C(=O)N[C@@H](C)C(=O)N[C@@H](C)C(=O)NCC(=O)N[C@@H](Cc1c[nH]c2ccccc12)C(N)=O [HHE] (H-GLLHLLHLLLEAAGW-NH2) | 113 L/P | 143 L/P | 411 L/P | 842 L/P | 0.75 L/P | 1.00 L/P | > 200 µM | 10.8 ± 0.78 µM | 16.7 ± 2.26 µM | 53.2 ± 5.3 µM | 18.4 ± 3.75 µM
